Test results taken from PMC10889512, “Pyrimidine Schiff Bases: Synthesis, Structural Characterization and Recent Studies on Biological Activities” (International Journal of Molecular Sciences, 2024).

Columns and labels:
AGS cells = assay: Flow cytometry FDA/PI staining, cell viability, AGS; type: cell-based, human
Description: A detailed analysis of potential cytotoxic mechanisms has been performed only for the selected compound (4b) where the IC50 values under 100 µM were detected in the screening NR assay. Flow cytometry was performed on the A172 and AGS cell lines. Cells were incubated with compound 4b at IC50 for 24, 48, and 72 h before analysis. Fluorescein diacetate (FDA) and propidium iodide (PI) were used as indicators for viable and nonviable (necrotic) cells. Most of the events were captured in the first and the fourth quadrant, which represent viable and necrotic cells, respectively. […] Similar results were obtained for the AGS cell line (Figure 8B), where the viability was 60.95%/55.10%/44.99% after the same incubation periods, respectively. Some events occurred in the second quadrant, but it was difficult to unequivocally categorize them into viable or nonviable (apoptotic/necrotic) cell populations, and thus more sensitive dyes, able to distinguish between the types of cell death, were needed.
Two approaches for flow cytometry were used—FDA/PI staining to determine cell viability and annexin V/PI staining for cell death pathway determination.
For cell viability determination, cells were plated in 6-well plates at a density of 1 × 10^5 cells/well and incubated for 24 h at 37 °C, 5% CO2 and in a humidified atmosphere. Next, cells were treated with 4b at a concentration calculated as IC50 in neutral red uptake assay. After 24, 48, and 72 h incubation, the cells (either adhered or floating) were collected, centrifuged at 1600 rpm, and washed with PBS. FDA and PI stock solution at a 1 mM concentration were prepared in DMSO and H2O, respectively. After centrifugation and supernatant discarding, cells were stained with FDA at a final concentration of 1 µM prepared in PBS and incubated in the dark. After 15 min, they were centrifuged at 1600 rpm, resuspended in ice-cold PBS, and placed on ice. Samples were stained with 1 µM PI for 2 min before the cytometry evaluation. […]

AGS = assay: Neutral red uptake assay on AGS; type: cell-based, human; details: 72 h treatment
Description: (§1) Based on the results obtained for the RPTEC cell line, the following concentrations of 4b–d were chosen to be applied to neoplastic cell lines: 0.1, 1, 10, 25, 50, and 100 µM. A172, AGS, CaCo-2, HeLa, and HepG2 cancer cell lines were used to perform a neutral red uptake assay. The obtained results were compared with a negative control (cell lines incubated without tested compounds), and half-maximal inhibitory concentration (IC50) values were calculated. Cell lines were plated in 96-well plates at a density of 1 × 10^4 cells/well. After 24 h incubation, which allowed the cells to attach and start to proliferate, the culture media were replaced with 4a–d dissolved in the appropriate medium at concentrations of 1, 10, 50, 100, 150 and 200 µM. […] Negative (1% DMSO in medium) and positive (1 µM staurosporine) controls were also included. Plates were incubated at 37 °C for 24, 48, and 72 h before the neutral red uptake assay. The neutral red uptake assay was performed as described by Repetto et al.. Briefly, the medium from all wells was discarded, the attached cells were washed with 100 µL PBS, and then 100 µL of neutral red working solution in medium (40 µg/mL) was added to each well. The neutral red solution was incubated overnight in the same conditions as the cells and centrifuged before being added to the cells. The plates were incubated for at least 2 h at 37 °C, 5% CO2, in a humidified atmosphere. Next, the neutral red medium was removed, and the cells were washed with 100 µL PBS. A 100 µL quantity of destain solution consisting of 50% ethanol, 1% glacial acetic acid, and deionized water was added to each well. Plates were incubated for 30 min with constant shaking on a horizontal shaker at 37 °C. Absorption was measured at 540 nm excitation. The cells’ viability was calculated by comparing results from experimental sets with negative controls according to the formula: % viability=ODtest substance−ODblind/ODnegative control−ODblind×100

A172 cells = assay: Flow cytometry annexin V/PI staining, cell death pathway, A172; type: cell-based, human; details: A172, at IC50, 6, 18 and 24 h
Description: To confirm the cell death pathway, another approach to flow cytometry was used. […] Annexin V is a specific PS-binding protein, and thus it is used to detect apoptotic cells. Very few events could be observed in the first and the second quadrant, which represent apoptotic cells. Most events occurred in the third and the fourth quadrant, where unstained and necrotic cells were located. The 24 h measurements after both flow cytometry approaches were consistent with each other. […] Two approaches for flow cytometry were used—FDA/PI staining to determine cell viability and annexin V/PI staining for cell death pathway determination. For cell death pathway determination, cells were plated in 6-well plates at a density of 3 × 10^5 cells/well. […] After 6, 18, and 24 h incubation, adhered and floating cells were harvested, centrifuged at 1600 rpm, and washed with PBS. Next, the cells were washed with 1× annexin-binding buffer, and after centrifugation, cells from each test set were suspended in 100 µL of 1× annexin-binding buffer. To each tube, 5 µL of Alexa Fluor 488-annexin V stain was added, and the cells were incubated in the dark. After 15 min incubation, the cells were centrifuged at 1600 rpm to remove the dye, then suspended in 1 mL of 1× binding buffer and kept on ice. Prior to analysis, cells were stained for 2 min with 1 µM PI. […]

HepG2 = assay: Neutral red uptake assay on HepG2; type: cell-based; details: Homo sapiens; HepG2, 72 h treatment
Description: as §1

HeLa = assay: Neutral red uptake assay on HeLa; type: cell-based; details: Homo sapiens, 72 h treatment
Description: as §1

IC50 (AGS): 32.2 µM
IC50 (AGS; Homo sapiens, 72 h): 32.2 µM
IC50 (HepG2): > 100 µM
IC50 (HeLa): > 100 µM
Structure (SMILES): Cc1nc(-c2ccccc2)nc(Nc2ccc(F)cc2)c1C=Nc1cccc(Cl)c1 [compound 4b, 5-{[(3-chlorophenyl)imino]methyl}-N-(4-fluorophenyl)-6-methyl-2-phenylpyrimidin-4-amine]
Q1 events (viable cells; viability), FDA/PI (AGS cells; at IC50, 24 h): 60.95%
Q1 events (viable cells; viability), FDA/PI (AGS cells; at IC50, 48 h): 55.10%
Q1 events (viable cells; viability), FDA/PI (AGS cells; at IC50, 72 h): 44.99%
cell death pathway (A172 cells): irreversible cell injury and necrosis
